Measurements as given in patent US20130052190A1, “CRTH2 Antagonists for Treatment of Eosinophilic Diseases and Conditions” (Oxagen Limited, priority 2011, published 2013).

What was measured:
[1] = tested on: patients with mild to moderate asthma; experiment: 4 week study in patients with mild to moderate asthma (FEV1); type: in vivo, human; conditions: after 4 weeks, 100 mg twice daily
Protocol: 4 Week Study in Patients with Mild to Moderate Asthma
The study was a randomized, double blind, placebo controlled study of (5-fluoro-2-methyl-3-quinolin-2-ylmethyl-indol-1-yl)-acetic acid (OC000459) for 28 days in patients with mild to moderate asthma with a FEV1 of 60-80% of predicted and requiring only short acting inhaled β2 agonists for symptomatic control. The study compared patients taking 100 mg of OC000459 twice daily with patients taking a placebo twice daily. The study consisted of 112 patients with 53 patients taking OC000459 and 59 patients taking the placebo.
1. Males and females aged 18-55 years. 2. Asthma controlled by short-acting β2 agonists only. 3. Mild to moderate persistent asthma according to GINA4 guidelines for at least 12 months. 4. Non-smokers for at least the past 12 months with a pack history of less than 10 pack years. 5. History of asthma symptoms increasing in response to external allergens. 6. Testing positive on skin prick test to an allergen associated with the patient's allergen.
1. Receipt of prescribed or over-the-counter medication within 14 days prior to the first study day. 2. Use of inhaled or local corticosteroids in the period 28 days prior to screening.

[2] = tested on: patients with mild to moderate persistent asthma; experiment: 12 week study in patients with mild to moderate persistent asthma (FEV1); type: in vivo, human; conditions: for FEV1 Improvement: 12 weeks, patient population on OC000459; for improvement in FEV1 over patients given the placebo / improvement in FEV1 over baseline: after 12 weeks
Protocol: 12 Week Study in Patients with Mild to Moderate Persistent Asthma
The study was a randomized, double blind, placebo controlled, four arm study of three dosage levels of (5-fluoro-2-methyl-3-quinolin-2-ylmethyl-indol-1-yl)-acetic acid (OC000459) tablets in patients with asthma controlled by β2 agonists alone. The study compared patients on OC000459 at three different dose levels (25 mg once daily, 100 mg twice daily, and 200 mg once daily) with patients on placebo after dosing for 12 weeks. The study consisted of 460 patients which yielded 440 evaluable results with 110 patients per arm. There was a screening period of 1 to 2 weeks, followed by placebo run-in for 3 weeks before the treatment period. There was a placebo wash-out for two weeks following the treatment period with a follow-up 3 to 5 weeks after the treatment period.
1. Males and females aged 18-55 years. 2. Asthma controlled by short-acting β2 agonists only. 3. Mild to moderate persistent asthma according to GINA4 guidelines for at least 12 months. 4. Non-smokers for at least the past 12 months with a pack history of less than 10 pack years.
Receipt of prescribed or over-the-counter medication within 14 days prior to the first study day.
1. Morning FEV1 of 60-85% of predicted. 2. Reversibility of ≧12% after salbutamol. 3. Greater than 1 puff per day of salbutamol required.

[3] = blood eosinophil count greater than or equal to 250/μL, FIG. 6(b)
[4] = full population (112 patients), FIG. 6(a)
[5] = FEV1 60-80% of predicted and positive skin prick test at baseline, FIG. 1
[6] = FEV1 60-80% of predicted, blood eosinophil count greater than or equal to 250/μL, positive skin prick test, FIG. 2

Cc1c(Cc2ccc3ccccc3n2)c2cc(F)ccc2n1CC(=O)O [OC000459, (5-fluoro-2-methyl-3-quinolin-2-ylmethyl-indol-1-yl)-acetic acid]
improvement in FEV1 over baseline [1, 3]: 250 mL
improvement in FEV1 over patients given the placebo [1, 3]: 180 mL
improvement in FEV1 over patients given the placebo ([1]; blood eosinophil count less than 250/μL, FIG. 6(c)): only a small improvement
improvement in FEV1 over baseline [1, 4]: 190 mL
improvement in FEV1 over patients given the placebo [1, 4]: 100 mL
FEV1 Improvement ([2]; 60-80% FEV1 Atopic): 130 mL
FEV1 Improvement ([2]; All-Comers): 100 mL
FEV1 Improvement ([2]; Hi-eosinophil count (>250/μL)): 188 mL
improvement in FEV1 over patients given the placebo ([2]; ACQ score greater than or equal to 1.5 at baseline, FIG. 4): 140 mL
improvement in FEV1 over patients given the placebo ([2]; ACQ score less than 1.5 at baseline, FIG. 5): 30 mL
improvement in FEV1 over baseline [2, 5]: 191 mL
improvement in FEV1 over patients given the placebo [2, 5]: 130 mL
improvement in FEV1 over baseline [2, 6]: 184 mL
improvement in FEV1 over patients given the placebo [2, 6]: 188 mL
improvement in FEV1 over patients given the placebo ([2]; FEV1 60-80% of predicted, blood eosinophil count less than 250/μL, positive skin prick test, FIG. 3): 76 mL
